The values that follow come from US20100028259A1, “USE OF ORGANIC CATION TRANSPORTERS FOR CANCER DIAGNOSIS AND THERAPY” (The Regents of the University of California, priority 2006, published 2010).

Read-outs that look alike come from different tables or passages of the source.

One experiment deals with SW620. Put plainly: MTT drug sensitivity, colon cancer cell line SW620. Format: cell-based, human. As for the experimental part: (§1) Cytotoxicity of the platinum-based compounds was measured by MTT (thiazolyl blue tetrazolium bromide) assay. Cells were seeded in 100 μl of the culture medium without any antibiotics in 96-well plates at a predetermined cell density. For HEK 293 cells, poly-D-lysine coated plates were used. […] For the OCT inhibitor studies, the inhibitors (i.e., disopyramide or cimetidine) were added to the medium at a specified concentration immediately before the addition of the platinum-based compounds. After incubation for a specified time period, the drug-containing medium was replaced with fresh, drug-free medium and the incubation was continued for a total of 72 hours (start from the addition of platinum-based compounds). Then, the MTT assay was performed similarly as described in Alley et al., Cancer Res., 48:589-601 (1988). […] The maximal cell growth was the cell growth in the medium without any platinum-based compounds; C is the concentration of the platinum-based compound, and γ is the slope factor.
(§2) The cell seeding density was 6,000-, 8,000-, 6,000-, 15,000-12,000- and 4,000 cells/well for HCT116, HT29, RKO, SW620, LS180, and DLD cells, respectively. When cimetidine (1.5 mM) was used, it was added to the wells immediately before the addition of the platinum-based drugs. The resistance factor (RF) was defined as the ratio of the mean IC50 value in the presence to that in the absence of cimetidine. Data are expressed as mean±SD from six measurements, and each measurement was performed in quadruplicate.

A further experiment deals with HEK-hOCT2 cells. Put plainly: Platinum-DNA adduct formation in HEK-hOCT2 cells. The following applies: 2-hr exposure. In kind it is cell-based, human. How it is done: After incubation at 37° C. and 5% CO2 for 2 hours, the cells were washed with ice-cold PBS three times and harvested. The genomic DNA was isolated from the cells and the platinum content associated with DNA was determined by ICP-MS and normalized for DNA content. Data are expressed as mean±SD from a typical experiment performed in triplicate. Two independent experiments were conducted and similar results were obtained.
The platinum content associated with genomic DNA was determined as described in Samimi et al., Clin. Cancer Res., 10:4661-4669 (2004) with some modifications. Briefly, the cells were grown in 100 mm×20 mm dishes in the culture medium without any antibiotics to over 90% confluence. For HEK 293 cells, poly-D-lysine coated dishes were used. Then, the cells were incubated in the culture medium containing the specified concentrations of the platinum-based compounds at 37° C. in 5% CO2 for 2 hours (or 25 min as specified). In some experiments, phosphate buffer (PB: 1.06 mM KH2PO4, 2.97 mM Na2HPO4, pH 7.4) containing 155 mM NaCl (PB—Cl buffer) or 103 mM Na2SO4 (PB—SO4 buffer) was used instead of the culture medium as specified. For the OCT inhibitor study, the incubation medium (buffer) also contained disopyramide or cimetidine). If PB—Cl or PB—SO4 buffer was used, the cells were washed with the same buffer once before drug incubation. After incubation, the cells were washed with ice-cold PBS, scraped, and pelleted. Genomic DNA was isolated from the cell pellets using the Wizard® Genomic DNA Purification Kit (Promega, Madison, Wis.) following the manufacturer's instructions. Briefly, the cells were lysed with Nuclei Lysis Solution. After RNA digestion and protein precipitation, the lysates were centrifuged and the resulting supernatant was aliquoted. The genomic DNA prepared from two different aliquots of the supernatant was used for platinum and DNA content determination, respectively. For the determination of platinum, the DNA samples were treated with 70% nitric acid at 65° C. and diluted in the same way as described above. The platinum content was analyzed using ICP-MS and the DNA content was measured by absorption spectroscopy.

Another experiment has as its system LS180. Put plainly: MTT drug sensitivity, colon cancer cell line LS180. In kind it is cell-based, human. As for the experimental part: as §1, §2
Experiment [1] relates to six colon cancer cell lines. Put plainly: MTT drug sensitivity, summary over the six colon cancer cell lines. In kind it is cell-based, human. As for the experimental part:
as §1
The resistance factor (RF) due to the presence of cimetidine was defined as the ratio of the IC50 value in the presence of cimetidine to that in the absence of cimetidine.
as §2

The subject of the next experiment is MDCK-hOCT1 cells. Put plainly: MTT drug sensitivity assay in MDCK-hOCT1 cells. Format: cell-based, canine. How it is done: as §1
(§3) Briefly, the cells were seeded in 96-well plates at a density of 5,000 cells/well for the transfected MDCK cells or 12,000 cells/well for the transfected HEK 293 cells. The platinum-based drugs were added on the following day. After the specified time periods of drug exposure, the drug-containing medium was replaced with fresh, drug-free medium, and the incubation was continued for a total of 72 hours (start from the time when the drug was added). After incubation, the cell growth was determined by an MTT assay. Data are expressed as mean±SD from 3 to 6 independent experiments with each performed in quadruplicate. The resistance factor (RF) was defined as the ratio of the mean IC50 value in the MOCK cells to that in the OCT-transfected cells.
Briefly, MDCK cells were seeded at a density of 5,000 cells/well in 96-well plates and exposed to the test compounds for 7 hours on the following day. After incubation for a total of 72 hours, the cell growth was determined by an MTT assay. The data for carboplatin was taken from Table 1 and was not determined simultaneously with the other compounds. The resistance factor (RF) was defined as the ratio of the mean IC50 value in MDCK-MOCK cells to that in MDCK-hOCT1 cells. Data are expressed as mean±SD from six measurements, and each measurement was performed in quadruplicate.
On the technique in general: Tetrazolium assays rely on reduction of a dye to a coloured formazan, in cell work by metabolically active cells.

Another experiment concerns HEK-hOCT3 cells. Nature of the experiment: MTT drug sensitivity assay in HEK-hOCT3 cells. Format: cell-based, human. How it is done:
as §1, §3

A word on the IC50: it is the concentration needed to halve the response being measured.

Take `O=C1[O][Pt]2([NH][C@@H]3CCCC[C@H]3[NH]2)[O]C1=O` [oxaliplatin]: the IC50 was 2810 ± 1000 nM in the experiment on SW620 (SW620, absence of cimetidine, read-out: IC50 Control); 14200 ± 2810 nM in the experiment on SW620 (SW620, cimetidine 1.5 mM, read-out: IC50 Cimetidine-treated); 1300 ± 410 nM in the experiment with LS180 (LS180, absence of cimetidine, read-out: IC50 Control); 8390 ± 2770 nM in the experiment with LS180 (LS180, cimetidine 1.5 mM, read-out: IC50 Cimetidine-treated); 3880 ± 1420 nM in experiment [1] (absence of cimetidine, read-out: mean±SE of IC50 in the six cell lines, control); 29100 ± 10700 nM in experiment [1] (cimetidine 1.5 mM, read-out: mean±SE of IC50 in the six cell lines, in the presence of cimetidine). Further, the IC50 is 480 ± 190 nM with MDCK-hOCT1 cells (SAR study Table 4, 7 hours of drug exposure, read-out: IC50 MDCK-hOCT1); 22800 ± 10500 nM in the experiment with MDCK-hOCT1 cells (co-incubation with disopyramide 150 μM, read-out: IC50 in MDCK-hOCT1, disopyramide-treated); 3790 ± 1570 nM with MDCK-hOCT1 cells (disopyramide study (FIG. 2D), without disopyramide, read-out: IC50 in MDCK-hOCT1, control); 3890 ± 1300 nM with MDCK-hOCT1 cells (drug exposure 7 hour, MTT at 72 hours, Table 1, read-out: IC50 MDCK-hOCT1); 1790 ± 580 nM with MDCK-hOCT1 cells (drug exposure 24 hour, MTT at 72 hours, Table 1, read-out: IC50 MDCK-hOCT1); 1680 ± 270 nM in the experiment with MDCK-hOCT1 cells (drug exposure 72 hour, Table 1, read-out: IC50 MDCK-hOCT1). In addition, the IC50 in the experiment with HEK-hOCT3 cells (drug exposure 7 hour) was determined as 2220 ± 410 nM; in the experiment on HEK-hOCT3 cells (drug exposure 24 hour), 620 ± 190 nM; with HEK-hOCT3 cells (drug exposure 72 hour), 690 ± 190 nM. For the same compound, in the experiment with HEK-hOCT2 cells (cimetidine 1.5 mM), the “platinum-DNA adduct level in HEK-hOCT2, cimetidine” value came to 0.00216±0.00031 pmol/μg DNA. In the experiment with HEK-hOCT2 cells (cimetidine 1.5 mM), the “rb in HEK-hOCT2, cimetidine” value is recorded as 7.13±1.02×10^−7. In the experiment with HEK-hOCT2 cells (oxaliplatin 0.6 μM), the “platinum-DNA adduct level in HEK-hOCT2” value came out at 0.0284±0.0020 pmol/μg DNA. The “rb in HEK-hOCT2” value with HEK-hOCT2 cells (oxaliplatin 0.6 μM) is given as 9.37±0.66×10^−6.
